This is an account of results in patent US20100068150A1, “Selective Caspase Inhibitors” (The Board of Trustees of the Leland Stanford Junior …, priority 2006, published 2010).

What all share (assay type): biochemical
In one experiment the target is Caspase-8 (Homo sapiens, UniProt Q14790). In words: Kinetic compound screening, progress curve method, caspase-8. The following applies: for Ki(app) Caspase-8: Table III, Ki(app) = Kass or Kobs/I, 10 nM active caspase-8; for Caspase-8 Ki (app): Table IV, NI = no inhibition at concentrations tested. The text has this:
(§1) Table III below presents Ki(app) values for select AB compounds. Ki(app) values (also called Kass or Kobs/I) represent the speed of inhibitor binding to a target enzyme. Units are [M^−1s^−1]. NI indicates no inhibition at concentrations tested. Parent compounds AB09, ABo8, and AB07 that include the optimal substrate specificity sequences for caspases-3, […] as determined by Thornberry and colleagues (Thornberry et al., 19970 are included between double lines.
(§2) The inhibitors AB07 (NP-LEHD-AOMK, caspase-9), AB08 (NP-LETD-AOMK, caspase-8), and AB09 (NP-DEVD-AOMK, caspase-3) were synthesized and kinetic inhibition constants (Kiapp) were obtained for all compounds for caspases 3, 7, 8 and 9 using the progress curve method for pseudo-first order reactions kinetics (Salvesen, 1989) (structures shown in Table I). […] Ki(app) values (also called Kass or Kobs/I) represent the speed of inhibitor binding to a target enzyme. Units are [M-1s-1]. NI indicates no inhibition at concentrations tested, ND indicates data not determined, SD indicates standard deviation.
(§3) Compound screening was completed using the progress curve method as described (Salvesen, 1989). All screening was carried out in caspase reaction buffer. The caspase-9 specific compounds AB38, 40, 41 and 42 were screened in caspase reaction buffer and in caspase buffer with 1M sodium citrate instead of sucrose as described (Pop, 2006) The concentrations of active caspases used is as follows: 5 nM active caspase-3, 5 nM active caspase-7, 10 nM active caspase-8, and 50 nM active caspase-9. To ensure full activation, caspases 3/7, 8 and 9 were preincubated at 37° C. for 5, 10, or 40 minutes respectively before kinetic measurements were made.

Another experiment deals with T1, Caspase-3 (Homo sapiens, UniProt P42574).
T1 sequence (P42574 29-175 limits assumed): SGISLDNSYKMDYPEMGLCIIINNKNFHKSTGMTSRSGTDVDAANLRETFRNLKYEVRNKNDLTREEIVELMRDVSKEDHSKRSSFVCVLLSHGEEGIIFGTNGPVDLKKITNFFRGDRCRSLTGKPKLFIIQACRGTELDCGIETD
T1 sequence (P42574 176-277 limits assumed): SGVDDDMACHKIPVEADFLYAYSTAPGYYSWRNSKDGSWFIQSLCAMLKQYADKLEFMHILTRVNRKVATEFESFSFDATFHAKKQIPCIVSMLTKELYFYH
In words: Kinetic compound screening, progress curve method, caspase-3. The following applies: for Ki(app) Caspase-3: Table III, Ki(app) = Kass or Kobs/I, 5 nM active caspase-3; for Caspase-3 Ki(app): Table IV.
From the text: as §1, §2, §3

The target of a further experiment is T2, Caspase-9 (Homo sapiens, UniProt P55211).
T2 sequence (P55211 1-416): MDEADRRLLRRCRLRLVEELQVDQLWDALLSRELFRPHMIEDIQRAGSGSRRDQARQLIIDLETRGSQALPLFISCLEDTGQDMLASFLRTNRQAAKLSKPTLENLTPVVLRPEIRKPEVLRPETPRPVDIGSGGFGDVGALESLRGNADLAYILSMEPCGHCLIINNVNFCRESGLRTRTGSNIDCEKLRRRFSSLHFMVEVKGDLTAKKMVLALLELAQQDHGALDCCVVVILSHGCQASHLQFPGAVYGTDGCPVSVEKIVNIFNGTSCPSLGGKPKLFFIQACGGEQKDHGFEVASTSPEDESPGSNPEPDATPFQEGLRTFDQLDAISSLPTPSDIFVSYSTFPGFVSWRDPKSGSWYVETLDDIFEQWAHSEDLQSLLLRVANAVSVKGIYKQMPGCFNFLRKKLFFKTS
In words: Kinetic compound screening, progress curve method, caspase-9. The settings on record: NI = no inhibition at concentrations tested; for Ki(app) Caspase-9: Table III, Ki(app) = Kass or Kobs/I, 50 nM active caspase-9; for Caspase-9 Ki (app): Table IV.
From the text: as §1, §2, §3

A further experiment has as its target T3, Caspase-7 (Homo sapiens, UniProt P55210).
T3 sequence (P55210 1-303): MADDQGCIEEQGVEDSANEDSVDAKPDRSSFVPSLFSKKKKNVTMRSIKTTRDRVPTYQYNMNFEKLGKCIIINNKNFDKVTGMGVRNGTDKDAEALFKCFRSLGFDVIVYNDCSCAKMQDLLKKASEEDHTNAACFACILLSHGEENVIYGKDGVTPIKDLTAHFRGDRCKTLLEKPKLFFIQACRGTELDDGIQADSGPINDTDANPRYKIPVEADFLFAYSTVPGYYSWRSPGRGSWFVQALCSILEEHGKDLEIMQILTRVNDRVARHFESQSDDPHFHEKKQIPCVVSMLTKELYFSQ
The experiment can be described thus: Kinetic compound screening, progress curve method, caspase-7. The following applies: for Ki(app) Caspase-7: Table III, Ki(app) = Kass or Kobs/I, 5 nM active caspase-7; for Caspase-7 Ki (app): Table IV.
From the text: as §1, §2, §3

Experiment [1] has as its system recombinant caspases-3, 7, 8 and 9. In words: Indirect competition with general probe KMB01 on individual recombinant caspases. The following applies: 100 nM caspase, inhibitor 30 min, then 5 μM KMB01 30 min; range of concentrations. On the procedure:
(a.) Indirect competition of a panel of inhibitors with the general caspase probe KMB01. Individual caspases-3, 7, 8 and 9 (100 nM each) were incubated with the indicated inhibitors for 30 minutes followed by a 30 minute incubation with KMB01. Samples were analyzed by SDS-PAGE and residual active site labeling was visualized by biotin blotting using streptavidin-HRP. (b.) Direct labeling of caspase active sites using specific ABPs. Equal amounts of active caspaseses-3, 8, and 9 ([…]) were incubated together with increasing concentrations of each of the indicated biotinylated active site probes for 30 minutes. Active site labeling was visualized by SDS-PAGE analysis followed by biotin blotting using streptavidin HRP. (*) Indicates labeling of the full-length form of caspase-3 that is only observed using recombinant enzyme preparations.
We initially focused on recombinant caspase3, 7, 8, and 9. Each caspase was individually pre-incubated with our optimal series of selective inhibitors at a range of concentrations and residual activity was measured by addition of the general caspase probe KMB01. Overall, the competition data mirrored the kinetic data with caspase-3 and 8-specific compounds showing specific competition of the desired target.
This was shown by analysis of inhibitor and probe selectivity by indirect competition and direct labeling of recombinant caspases. Indirect competition of a panel of inhibitors with the general caspase probe KMB01 was carried out with individual caspases-3, 7, 8 and 9 (100 nM each), which were incubated with the specific inhibitors for 30 minutes followed by a 30-minute incubation with KMB01. Samples were analyzed by SDS-PAGE and residual active site labeling was visualized by biotin blotting using streptavidin-HRP. Also, the direct labeling of caspase active sites was carried out using specific ABPs. Equal amounts of active caspaseses-3, 8, and 9 ([…]) were incubated together with increasing concentrations of each of the indicated biotinylated active site probes for 30 minutes. Active site labeling was visualized by SDS-PAGE analysis followed by biotin blotting using streptavidin HRP.
For all competition and direct labeling experiments recombinant caspases were pre-incubated in caspase reaction buffer for 15 minutes at 37° C. For competition experiments, 100 nM of active site titrated caspase was incubated for 30 minutes at 37° C. with appropriate inhibitor and then residual active sites were labeled with 5 μM KMB01 for an additional 30 minutes. For direct labeling, 100 nM caspase-3, 8, and 9 were incubated together in the presence of appropriate ABPs at the indicated concentrations for 30 min at 37° C.

The structures appear in SMILES notation.

Sequence of Caspase-8 (Q14790 217-479): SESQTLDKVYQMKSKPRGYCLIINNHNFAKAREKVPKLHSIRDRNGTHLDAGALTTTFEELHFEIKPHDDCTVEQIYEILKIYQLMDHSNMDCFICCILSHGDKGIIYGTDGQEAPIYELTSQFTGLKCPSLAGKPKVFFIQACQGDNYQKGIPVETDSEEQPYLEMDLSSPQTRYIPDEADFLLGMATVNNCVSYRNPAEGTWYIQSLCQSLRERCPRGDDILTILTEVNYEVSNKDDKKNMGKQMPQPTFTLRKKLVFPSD

For `CC[C@H](NC(=O)[C@@H](CCC(=O)O)NC(=O)c1ccccc1N)C(=O)N[C@@H](CC(=O)O)C(=O)COC(=O)c1c(C)cccc1C` [AB28, NH2-6-E-8-D-DMBA], on Caspase-8, the “Ki(app) Caspase-8” value is 817,077 M^−1s^−1 and the “Caspase-8 Ki (app)” value is recorded as 817,077 M-1s-1. In addition, at Caspase-3, the “Ki(app) Caspase-3” value was 1,020,213 M^−1s^−1 and the “Caspase-3 Ki(app)” value is reported as 1,020,213 M-1s-1. On Caspase-9, the “Ki(app) Caspase-9” value was 300,767 M^−1s^−1 and the “Caspase-9 Ki (app)” value is 300,767 M-1s-1. Also, at Caspase-7, the “Ki(app) Caspase-7” value is on record as 272,619 M^−1s^−1 and the “Caspase-7 Ki (app)” value is 272,619 M-1s-1. In experiment [1], the “competition for KMB01 labeling of recombinant caspases” value (shortened to “competition for KMB01 labeling”) was “blocked labeling of all four caspases targets”.

`CCC(C)C(NC(=O)Cc1ccc(O)c([N+](=O)[O-])c1)C(=O)N[C@@H](CC(C)C)C(=O)N[C@@H](C)C(=O)N[C@@H](CC(=O)O)C(=O)COC(=O)c1c(C)cccc1C` (stereo partly drawn) [AB40, Np-I-L- A-D-AOMK]: at Caspase-8, the “Ki(app) Caspase-8” value is 35,174 M^−1s^−1 and the “Caspase-8 Ki (app)” value is given as 35,174 M-1s-1. At Caspase-3, the “Ki(app) Caspase-3” value is recorded as 261,470 M^−1s^−1 and the “Caspase-3 Ki(app)” value is given as 261,470 M-1s-1. Also, at Caspase-9, the “Ki(app) Caspase-9” value is 48,867 M^−1s^−1 and the “Caspase-9 Ki (app)” value is 48,867 M-1s-1. At Caspase-7, the “Ki(app) Caspase-7” value is on record as 11,256 M^−1s^−1 and the “Caspase-7 Ki (app)” value is recorded as 11,256 M-1s-1. Moreover, in experiment [1], the “competition for KMB01 labeling” value is reported as “no specific inhibition”.

As to `Cc1cccc(C)c1C(=O)OCC(=O)[C@H](CC(=O)O)NC(=O)[C@H](C)NC(=O)[C@H](CC(C)C)NC(=O)C1CCCN1C(=O)Cc1ccc([N+](=O)[O-])c(O)c1` (stereo partly drawn) [AB38, Np-P-L- A-D-AOMK], on Caspase-8, the “Ki(app) Caspase-8” value was 19,676 M^−1s^−1 and the “Caspase-8 Ki (app)” value was 19,676 M-1s-1. For the same compound, on Caspase-3, the “Ki(app) Caspase-3” value is listed as 46,108 M^−1s^−1 and the “Caspase-3 Ki(app)” value is given as 46,108 M-1s-1. On Caspase-9, the “Ki(app) Caspase-9” value is 18,004 M^−1s^−1 and the “Caspase-9 Ki (app)” value is on record as 18,004 M-1s-1. Further, at Caspase-7, the “Ki(app) Caspase-7” value is on record as 27,814 M^−1s^−1 and the “Caspase-7 Ki (app)” value is 27,814 M-1s-1. Besides, in experiment [1], the “competition for KMB01 labeling” value is “minimal degree of selectivity for caspase-9 over caspase-8”.

As to `Cc1cccc(C)c1C(=O)OCC(=O)[C@H](CC(=O)O)NC(=O)[C@H](Cc1cc[nH]c1)NC(=O)[C@H](CCC(=O)O)NC(=O)[C@H](CC(C)C)NC(=O)Cc1ccc(O)c([N+](=O)[O-])c1` [AB07, Np-L-E- H-D-DMBA], at Caspase-8, the “inhibition of caspase-8, in words” value is on record as “more rapid inhibition of caspase-8”; the “Ki(app) Caspase-8” value was 506,912 M^−1s^−1; the “Caspase-8 Ki (app)” value is 506,912 M-1s-1. Moreover, at Caspase-3, the “Ki(app) Caspase-3” value was 75,295 M^−1s^−1 and the “Caspase-3 Ki(app)” value is 75,295 M-1s-1. On Caspase-9, the “Ki(app) Caspase-9” value is 20,141 M^−1s^−1 and the “Caspase-9 Ki (app)” value stood at 41 M⁻¹ s⁻¹. Moreover, at Caspase-7, the “Ki(app) Caspase-7” value was 10,447 M^−1s^−1 and the “Caspase-7 Ki (app)” value was 10,447 M-1s-1.

On to `CCC(C)C(NC(=O)Cc1ccc(O)c([N+](=O)[O-])c1)C(=O)N[C@@H](CC(C)C)C(=O)N1CSCC1C(=O)N[C@@H](CC(=O)O)C(=O)COC(=O)c1c(C)cccc1C` (stereo partly drawn) [AB41, Np-I-L-38-D-AOMK], for which, on Caspase-8, the “Ki(app) Caspase-8” value was 49,815 M^−1s^−1 and the “Caspase-8 Ki (app)” value was 49,815 M-1s-1. Moreover, at Caspase-3, the “Ki(app) Caspase-3” value is 1,582,350 M^−1s^−1 and the “Caspase-3 Ki(app)” value was 1,582,350 M-1s-1. Further, at Caspase-9, the “Ki(app) Caspase-9” value was 35,779 M^−1s^−1 and the “Caspase-9 Ki (app)” value was 35,779 M-1s-1. Further, at Caspase-7, the “Ki(app) Caspase-7” value was 69,317 M^−1s^−1 and the “Caspase-7 Ki (app)” value was 69,317 M-1s-1. The “competition for KMB01 labeling” value in experiment [1] is “no specific inhibition”.

Take `CCC(C)C(NC(=O)Cc1ccc(O)c([N+](=O)[O-])c1)C(=O)NC(Cc1ccccc1)C(=O)N1CCCC1C(=O)N[C@@H](CC(=O)O)C(=O)COC(=O)c1c(C)cccc1C` (stereo partly drawn) [AB42, NP-I-F- P-D-AOMK]: on Caspase-8, the “Ki(app) Caspase-8” value was 22,544 M^−1s^−1 and the “Caspase-8 Ki (app)” value is reported as 22,544 M-1s-1. Further, on Caspase-3, the “Ki(app) Caspase-3” value is recorded as 892,045 M^−1s^−1 and the “Caspase-3 Ki(app)” value is 892,045 M-1s-1. Moreover, on Caspase-9, the “Ki(app) Caspase-9” value is 44,709 M^−1s^−1 and the “Caspase-9 Ki (app)” value was 44,709 M-1s-1. Further, at Caspase-7, the “Ki(app) Caspase-7” value is given as 42,594 M^−1s^−1 and the “Caspase-7 Ki (app)” value is on record as 42,594 M-1s-1. The “competition for KMB01 labeling” value in experiment [1] is given as “minimal degree of selectivity for caspase-9 over caspase-8”.
